In patent US10544104B2, “Compositions and methods for treating toxoplasmosis, cryptosporidiosis, and other apicomplexan protozoan related diseases” (University of Washington through its Center for …, priority 2010, dated 2020):
“Also recorded” adds a separate entry of the source. Where two headings read alike, the source gives them in different places.

Columns and labels:
CpCDPK1 = CpCDPK1 (Cryptosporidium parvum (strain Iowa II), UniProt A3FQ16); type: biochemical
TgCDPK1 [1] = biological target: T1, TgCDPK1 (Toxoplasma gondii, UniProt Q9BJF5); type: biochemical; settings: read-out: Km of substrates
T1 sequence (Q9BJF5 1-507): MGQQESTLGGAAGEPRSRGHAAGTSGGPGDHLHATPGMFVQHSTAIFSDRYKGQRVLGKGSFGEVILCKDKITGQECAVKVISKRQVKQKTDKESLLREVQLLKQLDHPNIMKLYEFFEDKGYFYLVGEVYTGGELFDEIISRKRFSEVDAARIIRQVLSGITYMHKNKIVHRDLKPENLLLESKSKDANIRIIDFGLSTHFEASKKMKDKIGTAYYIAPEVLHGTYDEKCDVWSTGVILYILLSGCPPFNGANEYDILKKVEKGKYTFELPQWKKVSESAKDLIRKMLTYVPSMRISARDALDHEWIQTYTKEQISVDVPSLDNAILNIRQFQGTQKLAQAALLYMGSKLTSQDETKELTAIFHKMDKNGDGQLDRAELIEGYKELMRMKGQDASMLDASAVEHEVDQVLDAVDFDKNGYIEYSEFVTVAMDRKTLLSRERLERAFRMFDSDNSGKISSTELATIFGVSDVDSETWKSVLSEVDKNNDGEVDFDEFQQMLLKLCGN

TgCDPK1 [2] = biological target: T1, TgCDPK1; type: biochemical; settings: read-out: Km for ATP
in vitro [3] = settings: human
HL-60 = assay: Growth inhibition / toxicity, promyelocytic leukemia HL-60
PfCDPK1 = PfCDPK1 (Plasmodium falciparum (isolate 3D7), UniProt P62344); assay: biochemical; settings: read-out: PfCDPK1 (% inhibition @ 3 uM)
in vitro [4] = settings: human; remark: listed apart in the source
in vitro [5] = settings: human; remark: listed apart in the source
CRL8155 = assay: Growth inhibition / toxicity, human lymphocyte CRL8155
HC 2998 = assay: Growth inhibition / toxicity, colorectal carcinoma HC 2998
in vitro [6] = settings: human; remark: listed apart in the source
PfCDPK4 = PfCDPK4 (Plasmodium falciparum (isolate 3D7), UniProt Q8IBS5); assay: biochemical; settings: read-out: PfCDPK4 (% inhibition @ 3 uM)
SF539 = assay: Growth inhibition / toxicity, glioma derived SF539
C. parvum [7] = assay: C. parvum infection of HCT-8 cells (rRNA RT-PCR); type: cell-based, Cryptosporidium parvum
[8] = Solubility in buffers of various pH; type: physicochemical
P. falciparum = assay: microbe, parasite or virus in culture; settings: Plasmodium falciparum, read-out: Proliferation Blocking P. falciparum (EC50, μM)
P. berghei = system: P. berghei; parameters: species or system Plasmodium berghei; settings: in vivo
[9] = system: P. falciparum NF54 gametocytes; type: cell-based, Plasmodium falciparum
[10] = system: P. berghei expressing PfCDPK4-2x-myc; parameters: species or system Plasmodium berghei; settings: in vivo
C. parvum [11] = assay: Immunosuppressed (SCID-beige) mouse C. parvum model; type: in vivo, Cryptosporidium parvum; settings: oral gavage once a day, days 3-7 and 10-14
Method: Shown are mean of the parasite numbers detected in 25 mg of stool from each mouse, by qRT-PCR.

human fibroblast = assay: Fibroblast cytotoxicity / replication (Alamar blue); type: cell-based; settings: concentration at which toxicity (T) was observed
T. gondii = assay: microbe, parasite or virus in culture; settings: Toxoplasma gondii, read-out: Parasite Proliferation Assay EC50 T. gondii

Chain of CpCDPK1 (A3FQ16 1-538): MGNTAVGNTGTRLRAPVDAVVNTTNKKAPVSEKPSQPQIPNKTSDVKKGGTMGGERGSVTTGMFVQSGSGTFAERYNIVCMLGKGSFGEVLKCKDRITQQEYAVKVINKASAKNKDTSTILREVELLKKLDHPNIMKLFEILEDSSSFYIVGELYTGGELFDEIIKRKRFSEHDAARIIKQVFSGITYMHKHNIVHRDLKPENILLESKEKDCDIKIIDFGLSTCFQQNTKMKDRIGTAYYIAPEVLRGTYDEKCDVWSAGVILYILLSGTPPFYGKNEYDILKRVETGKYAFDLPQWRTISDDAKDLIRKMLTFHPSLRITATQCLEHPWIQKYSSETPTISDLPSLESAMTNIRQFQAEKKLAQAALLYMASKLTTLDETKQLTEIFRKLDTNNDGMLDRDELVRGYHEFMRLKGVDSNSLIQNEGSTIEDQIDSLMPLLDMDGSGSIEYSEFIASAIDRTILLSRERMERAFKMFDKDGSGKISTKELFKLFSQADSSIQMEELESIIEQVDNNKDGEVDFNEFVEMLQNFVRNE

6-(4-amino-1-(piperidin-4-ylmethyl)-1H- pyrazolo[3,4-d]pyrimidin-3-yl)-N,N- dimethylquinolin-2-amine [Compound 68]
IC50 (CpCDPK1): > 3 µM

Nc1ncnc2c1ncn2[C@@H]1O[C@H](COP(=O)(O)OP(=O)(O)OP(=O)(O)O)[C@@H](O)[C@H]1O [ATP]
Km (TgCDPK1 [1]): 10 µM
Km (TgCDPK1 [2]): 10 µM
Km (CpCDPK1; read-out: Km for ATP): 9 µM

CC(C)(C)n1nc(-c2cccc3ccccc23)c2c(N)ncnc21 [Compound 1, 1-tert-butyl-3-(naphthalen-1-yl)-1H-pyrazolo[3,4-d]pyrimidin-4-amine]
GI50 (in vitro [3]): > 10 µM
Cell Toxicity HL60, % at 25 μM (HL-60): <30% at 25 μM
inhibition at 3 µM (PfCDPK1): 51%
GI50 (in vitro [4]): > 10 µM
GI50 (in vitro [5]): > 10 µM
Cell Toxicity CRL8155, % at 25 μM (CRL8155): <30% at 25 μM
Cell Toxicity HCC2998, % at 25 μM (HC 2998): <30% at 25 μM
GI50 (in vitro [6]): > 10 µM
inhibition at 3 µM (PfCDPK4): 25%
Cell Toxicity SF539, % at 25 μM (SF539): <30% at 25 μM

CC(C)(C)n1nc(-c2ccc3ccccc3c2)c2c(N)ncnc21 [Compound 2, 1-tert-butyl-3-(naphthalen-2-yl)-1H-pyrazolo[3,4-d]pyrimidin-4-amine]
C. parvum parasite levels in HCT-8 cells (C. parvum [7]; inhibitor at time of infection and one hour after infection): most potent effect

COc1ccc2cc(-c3nn(CC4CCNCC4)c4ncnc(N)c34)ccc2c1 [Compound 28, 3-(6-methoxynaphthalen-2-yl)-1-(piperidin-4-ylmethyl)-1H-pyrazolo[3,4-d]pyrimidin-4-amine]
Experimental Solubility pH 7.4 [8]: 56 μM
EC50 (P. falciparum): 31.9 µM

CCOc1ccc2cc(-c3nn(CC4CCNCC4)c4ncnc(N)c34)ccc2c1 [Compound 29, 3-(6-ethoxynaphthalen-2-yl)-1-(piperidin-4-ylmethyl)-1H-pyrazolo[3,4-d]pyrimidin-4-amine]
exflagellation (P. berghei): sufficient to block exflagellation
formation of oocysts in A. stephensi fed on treated mice (P. berghei): completely blocked
impact on asexual parasitaemia or gametocyte rates (P. berghei): no impact
P. falciparum exflagellation [9]: complete suppression; also recorded: prevented the exflagellation
exflagellation events, repeat experiment [9]: suppressed completely
infection of A. stephensi midguts [9]: prevented
infective sporozoites in salivary glands [9]: complete absence
prevalence of oocyst infections [9]: reduced the prevalence
duration of complete suppression of exflagellation [10]: 14 h
exflagellation 20 hours after dosing [10]: some exflagellation was observed
exflagellation in blood samples from treated mice [10]: complete suppression; also recorded: completely suppressed
parasites in stool at the end of treatment (qRT-PCR) (C. parvum [11]): not detected
rebound of parasite burden after treatment (C. parvum [11]): slowly
Experimental Solubility pH 7.4 [8]: 49 μM

CC(C)(C)n1nc(-c2ccc(Cl)cc2)c2c(N)ncnc21 [Compound 146]
inhibition at 3 µM (PfCDPK1): 99%
inhibition at 3 µM (PfCDPK4): 95%

CCOc1ccc2cc(-c3nn(CC4CCN(C)CC4)c4ncnc(N)c34)ccc2c1 [Compound 150, 3-(6-ethoxynaphthalen-2-yl)-1-((1-methylpiperidin-4-yl)methyl)-1H-pyrazolo[3,4-d]pyrimidin-4-amine]
EC50 (C. parvum [7]; Cryptosporidium parvum, HCT-8, read-out: Parasite Proliferation Assay EC50 C. parvum): 0.54 µM
Observed HFF Toxicity (T at concentration) (human fibroblast): T at 25 μM
EC50 (T. gondii): 0.137 µM
parasites in stool at the end of treatment (qRT-PCR) (C. parvum [11]): not detected
rebound of parasite burden after treatment (C. parvum [11]): not

CC(C)(C)n1nc(-c2ccc3ccccc3c2)c2c(N)ncnc21 [NA-PP2, reference compound]
formation of oocysts in A. stephensi fed on treated mice (P. berghei): hundreds of oocysts per mosquito

NC[C@@H]1O[C@H](O[C@H]2[C@@H](O)[C@H](O[C@@H]3[C@@H](O)[C@H](N)C[C@H](N)[C@H]3O[C@H]3O[C@H](CO)[C@@H](O)[C@H](O)[C@H]3N)O[C@@H]2CO)[C@H](N)[C@@H](O)[C@@H]1O [Paromomycin, reference compound]
parasites in stool at the end of treatment (qRT-PCR) (C. parvum [11]): not detected
rebound of parasite burden after treatment (C. parvum [11]): quickly rebounded
